Data published in paper PMC7587356, “High-Throughput Screening for Inhibitors of the SARS-CoV-2 Protease Using a FRET-Biosensor” (Molecules, 2020).
Where a name gives a salt, the structure may show the parent alone. Read-outs that look alike come from different tables or passages of the source.

Target: SARS-CoV-2 3CLpro (Severe acute respiratory syndrome coronavirus 2, UniProt P0DTD1)
Experiment: biochemical
Type: biochemical
Set-up: Replicate_1 / Replicate_2 / mean / mean (LOPAC_screen_w_protease): unit not given here
Conditions: for inhibition at 5 µM: 4 h
[1] = sheet LOPAC_screen_w_protease, LOPAC1280 primary screen with protease, 5 µM compound, mean of the two replicates, read-out: mean
[2] = sheet LOPAC_screen_w_protease, LOPAC1280 primary screen with protease, 5 µM compound, replicate 1, read-out: Replicate_1
[3] = sheet LOPAC_screen_w_protease, LOPAC1280 primary screen with protease, 5 µM compound, replicate 2, read-out: Replicate_2
[4] = LOPAC1280 primary screen with protease, 5 µM compound, mean of two replicates
[5] = LOPAC1280 primary screen with protease, 5 µM compound, replicate 1
[6] = LOPAC1280 primary screen with protease, 5 µM compound, replicate 2
[7] = sheet LOPAC_screen_w_protease, primary screen with protease, compound at 5 µM, mean of two replicates, read-out: mean
[8] = sheet LOPAC_screen_w_protease, primary screen with protease, compound at 5 µM, replicate 1, read-out: Replicate_1
[9] = sheet LOPAC_screen_w_protease, primary screen with protease, compound at 5 µM, replicate 2, read-out: Replicate_2
[10] = sheet LOPAC_screen_w_protease, primary screen with protease, 5 µM, mean of two replicates
[11] = sheet LOPAC_screen_w_protease, primary screen with protease, 5 µM, replicate 1
[12] = sheet LOPAC_screen_w_protease, primary screen with protease, 5 µM, replicate 2

`O=C(O)c1cccnc1Nc1cccc(C(F)(F)F)c1` [Niflumic acid] gave an inhibition at 5 µM [1] of 4.95%, an inhibition at 5 µM [2] of 4.76% and an inhibition at 5 µM [3] of 5.13%.

In the case of `CN(C)C(N)=NCCC[C@H](N)C(=O)O.Cl` [N^G,N^G-Dimethylarginine hydrochloride], the mean (sheet LOPAC_screen_w_protease, LOPAC1280 at 5 µM, mean of two replicates) is reported as 0.9307, the Replicate_1 (sheet LOPAC_screen_w_protease, LOPAC1280 at 5 µM, replicate 1) is reported as 2.142 and the Replicate_2 (sheet LOPAC_screen_w_protease, LOPAC1280 at 5 µM, replicate 2) is reported as -0.2808.

With `C/C(O)=C(\C#N)C(=O)Nc1cc(Br)ccc1Br` [LFM-A13] the “mean (LOPAC_screen_w_protease)” value [4] was 1.507, the “Replicate_1 (LOPAC_screen_w_protease)” value [5] was -0.001982 and the “Replicate_2 (LOPAC_screen_w_protease)” value [6] was 3.017.

Compound `Cn1c(=O)c2[nH]c(-c3ccccc3)nc2n(C)c1=O` [1,3-Dimethyl-8-phenylxanthine] has a mean (sheet LOPAC_screen_w_protease, LOPAC1280 primary screen with protease, 5 µM compound, mean of the two replicates) of 6.36, a Replicate_1 (sheet LOPAC_screen_w_protease, LOPAC1280 primary screen with protease, 5 µM compound, replicate 1) of 5.626 and a Replicate_2 (sheet LOPAC_screen_w_protease, LOPAC1280 primary screen with protease, 5 µM compound, replicate 2) of 7.0953.

For `N[C@H]1CON=C1O` [L-Cycloserine], the inhibition at 5 µM [7] was 3.14%, the inhibition at 5 µM [8] was 0.423% and the inhibition at 5 µM [9] was 5.86%.

`O=C(O)c1cc([N+](=O)[O-])ccc1NCCCc1ccccc1` was tested, and the “Replicate_1 (LOPAC screen with protease)” value was 5.784, the “Replicate_2 (LOPAC screen with protease)” value was 7.243 and the “mean (LOPAC screen with protease)” value was 6.5136.

Work on `Clc1ccc(C(c2ccccc2Cl)C(Cl)Cl)cc1` (stereo not drawn) yielded a mean [10] of -0.2273, a Replicate_1 [11] of 0.8298 and a Replicate_2 [12] of -1.2843.

In the case of `COc1cc(CNC(=O)CCCCCCC(C)C)ccc1O` [Dihydrocapsaicin], the inhibition at 5 µM [7] is reported as 3.14%, the inhibition at 5 µM [8] is reported as 4.91% and the inhibition at 5 µM [9] is reported as 1.38%.

`Cc1c(C)c2c(c(C)c1O)CCC(C)(CN1CCN(c3cc(N4CCCC4)nc(N4CCCC4)n3)CC1)O2.Cl.Cl` (stereo not drawn) [U-83836 dihydrochloride] was tested, and the mean [10] was 0.07046, the Replicate_1 [11] was -0.1864 and the Replicate_2 [12] was 0.3273.

Work on `C=C1C(=O)O[C@H]2[C@H]1CC/C(C)=C/CC[C@@]1(C)O[C@@H]21` [Parthenolide] yielded an inhibition at 5 µM (sheet LOPAC_screen_w_protease, primary screen of LOPAC1280 at 5 µM with protease, mean of the two replicates, read-out: mean) of 3.43%, an inhibition at 5 µM (sheet LOPAC_screen_w_protease, primary screen of LOPAC1280 at 5 µM with protease, replicate 1, read-out: Replicate_1) of 3.99% and an inhibition at 5 µM (sheet LOPAC_screen_w_protease, primary screen of LOPAC1280 at 5 µM with protease, replicate 2, read-out: Replicate_2) of 2.86%.

`CCOC(=O)C1=C(C)NC(C)=C(C(=O)OC)C1c1cccc([N+](=O)[O-])c1` (stereo not drawn) [Nitrendipine] was tested, and the inhibition at 5 µM [1] was 4.54%, the inhibition at 5 µM [2] was 3.89% and the inhibition at 5 µM [3] was 5.19%.

With `CC[N+](C)(C)c1cccc(O)c1` [Edrophonium chloride] the inhibition at 5 µM (sheet LOPAC_screen_w_protease, primary screen with protease, mean of two replicates, read-out: mean) was 2.25%, the inhibition at 5 µM (sheet LOPAC_screen_w_protease, primary screen with protease, replicate 1, read-out: Replicate_1) was 5.19% and the inhibition at 5 µM (sheet LOPAC_screen_w_protease, primary screen with protease, replicate 2, read-out: Replicate_2) was -0.704%.

With `CNCCCC1c2ccccc2C=Cc2ccccc21` [Protriptyline hydrochloride] the inhibition at 5 µM (read-out: Replicate_1) was 1.19%, the inhibition at 5 µM (read-out: Replicate_2) was -0.325% and the inhibition at 5 µM (read-out: mean) was 0.431%.

With `c1ccc(-c2ccccn2)nc1` [2,2'-Bipyridyl] the mean (sheet LOPAC_screen_w_protease, LOPAC1280 primary screen at 5 µM, with protease, mean of the two replicates) was 0.8479, the Replicate_1 (sheet LOPAC_screen_w_protease, LOPAC1280 primary screen at 5 µM, with protease, replicate 1) was 3.924 and the Replicate_2 (sheet LOPAC_screen_w_protease, LOPAC1280 primary screen at 5 µM, with protease, replicate 2) was -2.2286.

In the case of `Cc1ccc(/C(=C\CN2CCCC2)c2ccccn2)cc1.Cl` [Triprolidine hydrochloride], the mean [10] is reported as 0.01953, the Replicate_1 [11] is reported as 0.1702 and the Replicate_2 [12] is reported as -0.1311.

`NCCCNCCCCNCCCN` [Spermine tetrahydrochloride] gave an inhibition at 5 µM (read-out: Replicate_1) of 3.94%, an inhibition at 5 µM (read-out: Replicate_2) of 4.24% and an inhibition at 5 µM (read-out: mean) of 4.09%.

For `Nc1nc(OCc2ccccc2)c2nc[nH]c2n1` [O6-benzylguanine], the inhibition at 5 µM (LOPAC1280 primary screen with protease, 5 µM compound, replicate 1, read-out: Replicate_1 (LOPAC_screen_w_protease)) was 0.721%, the inhibition at 5 µM (LOPAC1280 primary screen with protease, 5 µM compound, replicate 2, read-out: Replicate_2 (LOPAC_screen_w_protease)) was 2.08% and the “mean (LOPAC_screen_w_protease)” value [4] was 1.401.

In the case of `Cl.c1ccc2sc(C3(N4CCCCC4)CCCCC3)cc2c1` [BTCP hydrochloride], the “mean (LOPAC_screen_w_protease)” value (LOPAC1280 primary screen with protease, 5 µM compound, mean of the two replicates) is reported as 2.11, the “Replicate_1 (LOPAC_screen_w_protease)” value [5] is reported as 1.768 and the “Replicate_2 (LOPAC_screen_w_protease)” value [6] is reported as 2.452.
